Key:
[1] = tested on: adjuvant-induced arthritis (AIA) model; assay: Clinical score analysis in adjuvant-induced arthritis (AIA) model; format: in vivo, Lewis rats; set-up: Clinical score 9th day / Clinical score 13th day / Clinical score 16th day / Clinical score 11th day / Clinical score 15th day / Clinical score 18th day: scale not given here; conditions: Table 17 study, compound 10 mg/kg once per day P.O.; for Rate of reduction in clinical scores (%): 18th day vs vehicle; for Clinical score 11th day / Clinical score 15th day / Clinical score 18th day: Mean ± SEM
Experimental: (§1) Lewis rats (female, five-weeks old) were purchased from Central Lab Animal, Inc. and kept in a controlled environment with a temperature at 22±2° C., a humidity at 44-56% and a light/dark cycle of 12 hours, while being allowed to have a free access to standard diet and water for one week before an examination. Complete Freund's Adjuvant (Chondrex) containing 10 mg/mL of heat killed mycobacteria toxin was fully mixed together, after which […] thereof was taken and subcutaneously injected into each upper tail of the rats to induce arthritis therefrom.
(§2) To administer a drug of compound 374 (SM374) and evaluate an effect thereof, the rats were divided into 11 groups (9, 10 or 11 animals per group) one day before or nine days after inducing arthritis, after which each group was classified according to administered substances (vehicle, compound 374 (SM374) or methotrexate (MTX)) and administration routes (oral administration (P.O.) or intraperitoneal administration (I.P.)) as shown in a following table 13.
(§3) Also, in order to administer a drug of compounds 374, 413, 484, 530 and 652 (SM374, SM413, SM484, SM530 and SM652) and evaluate an effect thereof, the rats were divided into 13 groups (9 or 10 animals per group) eight days after inducing arthritis, and each group was classified according to administered substances (vehicle, SM374, SM413, SM484, SM530, SM652 and MTX) and administration routes (oral or intraperitoneal administration) as shown in a following table 14.
To identify the efficacy of the inventive composition on preventing or treating arthritis in an AIA model, an analysis was made on the clinical scores of rats dosed with a compound 374 (SM 374, once per day) or MTX (once per week or twice per week) from 9th day to 16th day after inducing arthritis.
Particularly, a degree of swelling, erythema, etc., in each joint of the rats were observed, after which clinical scores were calculated according to a scoring system described in a following table 15, such that the clinical scores on four joints were added up to obtain total scores for each rat (Vishwakarma et al., 2013).
To identify the efficacy of the inventive composition on preventing or treating arthritis in an AIA model, an analysis was made on the clinical scores of rats dosed with compounds 374, 413, 484, 530 and 652 (SM374, SM413, SM484, SM530 and SM652, once per day) or MIX (once per week) from 8th day to 18th day after inducing arthritis.

[2] = Analysis of body weights in AIA model; format: in vivo, Lewis rats; conditions: Table 19 study; compound 10 mg/kg once per day P.O.
Experimental: as §1, §2, §3
An analysis was made on the body weight of rats dosed with compound 374 (SM 374, once per day) or MIX (once per week or twice per week) from 9th day to 16th day after inducing AIA. […]

## COc1cccc(N(Cc2ccc(C(=O)NO)cc2)C(=O)N2CCOCC2)c1 [SM484, N-(4-(hydroxycarbamoyl)benzyl)-N-(3-methoxyphenyl)morpholine-4-carboxamide]
[1]
  Rate of reduction in clinical scores (%): 19.7%
  Clinical score 11th day: 0.0 ± 0.0
  Clinical score 15th day: 2.9 ± 1.3
  Clinical score 18th day: 4.9 ± 1.7
[2]
  Body weight (g) 8th day: 151.4 ± 2.5 g
  Body weight (g) 11th day: 154.7 ± 2.1 g
  Body weight (g) 15th day: 160.7 ± 3.3 g
  Body weight (g) 18th day: 158.3 ± 4.6 g

## O=C(NO)c1ccc(CN(C(=O)N2CCOCC2)c2cccc(F)c2)cc1 [SM530]
[1]
  Rate of reduction in clinical scores (%): 31.1%
  Clinical score 11th day: 0.0 ± 0.0
  Clinical score 15th day: 1.2 ± 0.5
  Clinical score 18th day: 4.2 ± 1.6
[2]
  Body weight (g) 8th day: 151.2 ± 2.6 g
  Body weight (g) 11th day: 153.0 ± 2.1 g
  Body weight (g) 15th day: 161.1 ± 2.1 g
  Body weight (g) 18th day: 159.2 ± 4.5 g

## O=C(NO)c1ccc(CN(C(=O)N2CCCOCC2)c2cccc(F)c2)cc1 [SM652, N-(3-fluorophenyl)-N-(4-(hydroxycarbamoyl)benzyl)-1,4-oxazepane-4-carboxamide]
[1]
  Rate of reduction in clinical scores (%): 19.7%
  Clinical score 11th day: 0.0 ± 0.0
  Clinical score 15th day: 1.4 ± 0.9
  Clinical score 18th day: 4.9 ± 1.6
[2]
  Body weight (g) 8th day: 152.8 ± 2.4 g
  Body weight (g) 11th day: 157.6 ± 1.9 g
  Body weight (g) 15th day: 158.8 ± 1.6 g
  Body weight (g) 18th day: 156.8 ± 3.9 g

— patent US20220296599A1, “Pharmaceutical composition comprising histone deacetylase inhibitor and methotrexate” (Chong Kun Dang Pharmaceutical Corp., priority 2018, published 2022)
